Results on one compound are retold here after US20130023585A1, “Neuraminidase Inhibitors” (TSRL, INC., priority 2010, published 2013).

The test relates to Hong Kong/2369/2009 (H1N1) H275Y oseltamivir resistant. It counts as cell-based, influenza virus.

For `CCC(CC)O[C@@H]1C=C(C(=O)O)C[C@H](NC(=N)N)[C@H]1NC(C)=O` [GOC, 4-guanidinio oseltamivir carboxylate], the “activity against the Oseltamivir resistant strain” value is “remains active”. The EC50 (read-out: 50% effective concentration (EC50)) was found to be 1700 nM.
